Patent US20120015364A1, “METHOD FOR THE SELECTION OF ENDOTHELIAL CELLS DEATH INDUCERS VIA NETRIN-1 AND ITS APPLICATIONS” (CENTRE NATIONAL DE LA RECHERCHE SCIENTIFIQUE (CNRS), priority 2009, published 2012)
Peptide text beside a SMILES is read from it. * marks the point of attachment. Cbz = O=C(OCc1ccccc1)*; CH2F = FC*

How the values were obtained:
[1] = tested on: murine aortic rings; assay: Aortic ring matrigel assay (ex vivo); format: cell-based, mouse; conditions: netrin-1 150 ng/ml, z-VAD-fmk 20 nM, BAF 20 nM, VEGF 13 ng/ml; day 4
Method: Aortic ring assays were performed as described by Nicosia and colleagues (Nicosia and Ottinetti, 1990). Aortas were resected from Balb/C mice of 6 to 8 weeks of age, cleaned of periadventitial fat and connective tissues, rinsed twice in ECGM and cut in rings of 1 to 1.5 mm length. One hundred microliters of Growth factor reduced Matrigel (BD Biosciences) was added to each well of a 48-well tissue culture plate (Costar) and allowed to solidify for 30 min. at 37° C. Aortic rings were placed on the matrix layer, embedded in 100 μl of Matrigel, and allowed to recover in complete growth medium (ECGM, Promocell) for 24 hours. They were then treated or not with netrin-1 (150 ng/ml), z-VAD-fmk (Tebu; 20 nM), BAF (Sigma; 20 nM) or VEGF (Sigma; 13 ng/ml) and photographed with a phase contrast microscope on day 4. Microvessels outgrowth total length was calculated using AxioVision Release 4.6 software.

[2] = tested on: chick chorioallantoic membrane; assay: Chick chorioallantoic membrane (CAM) assay; format: in vivo; conditions: 8-day-old chick embryos, 3 days; netrin-1 150 ng/ml, z-VAD-fmk 20 nM, BAF 20 nM; p<0.02
Method: Chick chorioallantoic membrane assay (CAM) assay was performed as already described. White Leghorn eggs were incubated at 37° C. in a humidified atmosphere. After 72 hours of incubation, 3 ml albumen was removed and a square window was opened into the shell. The opening was closed with cellotape until day 8. Netrin-1 (150 ng/ml), z-VAD-fmk (Tebu; 20 nM), BAF (Sigma; 20 nM), or VEGF (Sigma) were then diluted in PBS and mixed with an equal volume of autoclaved 1% methylcellulose solution. Controls were prepared with vehicles only. Each sample solution (10 μl) was dropped on Parafilm and dried up. The methylcellulose disks were stripped off from the Parafilm and placed on a CAM of the 8-day-old chick embryos. After 3 days, CAMs were photographed and the angiogenic response was evaluated by measuring the number of secondary ectopic vessels sprouts under the methylcellulose disks using AxioVision Release 4.6 software. UNC5B silencing in CAM was achieved by injection of specific siRNA designed by Sigma-Proligo in CAM blood circulation at E.5, E.7 and E.9. Analysis was performed at E.11.

[3] = tested on: fli:egfp zebrafish embryos; assay: Morpholino knockdown of fli:egfp zebrafish embryos, trunk vasculature phenotype; format: in vivo
Method: Resource Center (University of Oregon) and maintained under standard breeding conditions at 28° C. (Lawson and Weinstein, 2002). Embryos were dechorionated using pronase enzymatic treatment and 6 ng of splice/translation blocking netrin-1, UNC5B and control morpholinos that were previously designed and characterized were injected alone or in combination in the high yolk of one to four-cells-stage embryos. A third splice-blocking morpholino specifically targeting netrin-1a was designed (GeneTools) and injected in embryos at the same dose. Finally, 3 ng of a translation-blocking morpholino targeting zebrafish ortholog of DAP kinase (GeneTools) was injected, leading to 35% decrease of DAP kinase mRNA expression in knocked-down embryos compared to control. Sequences of morpholinos are available upon request. Embryos were raised in E3 medium supplemented with 0.003% phenylthiourea to inhibit pigment formation. Rescue of phenotype induced by netrin-1a silencing was tested by adding 40 nM BAF in the E3 medium 4 hours after morpholinos injection. For TUNEL staining, embryos were fixed at 48 hpf in 4% PFA overnight at 4° C. They were then rinsed 10 minutes in PBS-Tween 0.1% (PBST) and progressively dehydrated in successive methanol baths (25, 50, 75 and 100%). […]

[4] = tested on: zebrafish embryos; assay: Apoptosis in zebrafish embryos (TUNEL staining, caspase-3 activity); format: in vivo; conditions: TUNEL immunostaining and caspase-3 activity; tsl-netrin-1a injected embryos
Method: Embryos were dechorionated using pronase enzymatic treatment and 6 ng of splice/translation blocking netrin-1, UNC5B and control morpholinos that were previously designed and characterized were injected alone or in combination in the high yolk of one to four-cells-stage embryos. A third splice-blocking morpholino specifically targeting netrin-1a was designed (GeneTools) and injected in embryos at the same dose. […] Embryos were raised in E3 medium supplemented with 0.003% phenylthiourea to inhibit pigment formation. Rescue of phenotype induced by netrin-1a silencing was tested by adding 40 nM BAF in the E3 medium 4 hours after morpholinos injection. For TUNEL staining, embryos were fixed at 48 hpf in 4% PFA overnight at 4° C. They were then rinsed 10 minutes in PBS-Tween 0.1% (PBST) and progressively dehydrated in successive methanol baths (25, 50, 75 and 100%). […] Caspase-3 activity assay was performed as described above on whole embryos at 24 h development.

[5] = tested on: HUAEC; assay: Cell death upon serum starvation, trypan blue exclusion; format: cell-based, human; conditions: netrin 50 ng/ml, p<0.005
Method: (§1) Cell death assays were performed as described previously. Briefly, endothelial cells were seeded at 10 000 cells/cm2 in complete medium for 16 hours. Cell death was induced either by starvation in serum free medium (Endothelium Cell Basal Medium, Promocell) or by exposure to 50 μM etoposide. Netrin-1 was purchased from Axxora-Apotech. Cell death was scored by trypan blue exclusion assay as previously described. For detection of DNA fragmentation, treated cells cultured on coverslips were fixed 20 minutes in 4% paraformaldehyde (PFA) and Terminal deoxynucleodityl transferase mediated dUTP-biotin Nick End Labeling (TUNEL) was performed with 300 U/mL TUNEL enzyme (300 U/mL) and 6 μM biotinylated dUTP (Roche Diagnostics). Caspase-3 activity was measured using ApoAlert CPP32 kit from Clontech (USA) and by immunostaining on fixed cells using anti-active-caspase-3 antibody (Cell Signaling) as described in (Llambi et al., 2005; Tauszig-Delamasure et al., 2007). Toxilight assay was performed according to manufacturer's instructions (Lonza). For netrin-1 titration experiment, rat recombinant UNC5H2-Fc (R&D) was used at 1 μg/ml.

[6] = tested on: HUVEC; assay: as above; format: cell-based, human; conditions: netrin 50 ng/ml, p<0.005
Method: as §1

[7] = tested on: HUAEC; assay: Etoposide-induced cell death, Toxilight assay; format: cell-based, human; conditions: overnight treatment with 50 μM etoposide; p<0.05
Method: as §1

[8] = tested on: HUVEC; assay: Etoposide-induced cell death, Toxilight assay; format: cell-based, human; conditions: overnight treatment with 50 μM etoposide; p<0.05
Method: as §1

[9] = tested on: HUVEC; assay: TUNEL staining of apoptosis; format: cell-based, human; conditions: netrin 50 ng/ml
Method: as §1

[10] = tested on: HUVEC; assay: Caspase-3 activity assay (ApoAlert CPP32 kit, active caspase-3 immunostaining); format: cell-based, human; conditions: netrin 50 ng/ml, p<0.005
Method: Human umbilical vein and artery cells (Promocell, passages<8) were cultured in endothelial cell growth medium (ECGM, Promocell) supplemented with 2% serum (kit, Promocell) until they reach 80% confluence. HUVEC were transfected using the AMAXA Nucleofector system, according to manufacturer's instructions. In brief, 500 000 cells were resuspended in 100 μl HUVEC Nucleofector solution and transfected with 1 μg siRNA or 1.5 μg plasmid DNA and 0.5 μg GFP-encoding control plasmid. UNC5A, UNC5B and scramble siRNAs were designed by Sigma-Proligo. Plasmids encoding mutant DAP kinase (DAP kinase ΔCam and DAP kinase DD) were described previously (Llambi et al., 2005). After transfection, cells were cultured in 1% growth medium and collected after 24 hours.
Cell death assays were performed as described previously. Briefly, endothelial cells were seeded at 10 000 cells/cm2 in complete medium for 16 hours. Cell death was induced either by starvation in serum free medium (Endothelium Cell Basal Medium, Promocell) or by exposure to 50 μM etoposide. Netrin-1 was purchased from Axxora-Apotech. Cell death was scored by trypan blue exclusion assay as previously described. […] Caspase-3 activity was measured using ApoAlert CPP32 kit from Clontech (USA) and by immunostaining on fixed cells using anti-active-caspase-3 antibody (Cell Signaling) as described in (Llambi et al., 2005; Tauszig-Delamasure et al., 2007). […]

[11] = tested on: HUAEC; assay: as above; format: cell-based, human; conditions: netrin 50 ng/ml, p<0.005
Method: as §1

[12] = tested on: DAP kinase; assay: DAP kinase phosphorylation, Western blot; format: cell-based, human; conditions: HUVEC; netrin-1 in serum free medium 24 hours
Method: Endothelial cells seeded at 10 000 cells/cm^2 and treated or not with netrin-1 in serum free medium (Endothelium Cell Basal Medium, Promocell) for 24 hours were collected and lysed in 50 mM HEPES pH 7.6, 125 mM NaCl, 5 mM EDTA and 0.1% NP-40 buffer in the presence of protease inhibitors. Protein extracts were immunoblotted with anti-DAP-kinase and anti-phospho-DAP kinase antibodies (Sigma). For immunofluorescence analysis, cells were seeded on LabTek chamber slides and fixed 15 minutes in 4% PFA.

Row | Compound | capillary sprouting / microvessels formation from aortic rings [1] | neovessel formation in vicinity of methylcellulose discs [2] | embryos with PAV formation ([3]; spl-netrin-1a injected embryos treated with 40 nM BAF, n=54, 42.7% in untreated, p<0.0001) [%] | embryos displaying at least partial ISVs ([3]; tsl-netrin-1a knock-down embryos treated with BAF, 23.0% in controls, p<0.001) [%] | increase of cell death after netrin-1a silencing [4] | HUAEC cell death [5] | HUVEC cell death [6] | HUAEC cell death upon etoposide [7] | HUVEC cell death upon etoposide [8] | number of TUNEL positive cells [9] | reduced caspase-3 activity [10] | reduced caspase-3 activity [11] [%] | DAP kinase phosphorylation [12]
1 | COC(=O)C[C@H](NC(=O)OC(C)(C)C)C(=O)CF [BAF] | induced neocapillary tube formation | significant increase in neovessel formation | 92.6 | 54.5 | rescued the increase of cell death | – | – | – | – | – | – | – | –
2 | COC(=O)C[C@H](NC(=O)[C@H](C)NC(=O)[C@@H](NC(=O)OCc1ccccc1)C(C)C)C(=O)CF [z-VAD-fmk, reference compound] (Cbz-Val-Ala-Asp(OMe)-CH2F) | induced neocapillary tube formation | significant increase in neovessel formation | – | – | – | – | – | – | – | – | – | – | –
3 | VEGF | enhanced capillary sprouting | significant increase in neovessel formation | – | – | – | – | – | – | – | – | – | – | –
4 | netrin-1 | enhanced capillary sprouting | significant increase in neovessel formation | – | – | – | inhibited | inhibited | inhibits | inhibits | decreased number of TUNEL positive cells | up to 30% | ≤ 40 | increase in DAP kinase phosphorylation
